# Target: T1, human recombinant mGluR5 (Homo sapiens, UniProt P41594)
# T1 construct: expressed in transfected cells; host or cells: HEK 293 cell line; cultured with tetracycline, hygromycin and geneticin; tetracycline withdrawn 3-7 days before the assay
# Test: positive modulation of mGluR5, calcium based FLIPR assay in HEK 293 cells
# Conditions: HEK 293 cell line expressing human recombinant mGluR5; peak height of Ca release fluorescence signal after glutamate at approximately 5% basal stimulation; nonlinear regression
# Experimental: The positive modulation of mGluR5 is measured in a HEK 293 cell line expressing human recombinant mGluR5 and is detected with calcium based FLIPR assay. The cells are cultured with DMEM supplemented with 10% FCS, 2 μg/mL tetracycline, 100 μg/mL hygromycin and 500 μg/mL gneticin. The cell culture media is exchanged for tetracycline-free cell culture media 3-7 days before the assay. One day before the assay the cell culture medium is exchanged to DMEM without glutamine and phenol red and supplemented with 10% FCS, 100 μg/mL hygromycin and 500 μg/mL geneticin. On the assay day, the medium of the subconfluent cultures is removed and the cells are detached by addition of 2.5 ml EDTA(0.02%) per 175 cm2 culture flask for 1 minute. The cells are resuspend in Ringer solution (140 mM NaCl, 5 mM KCl, 2.5 mM CaCl2, 1.5 mM MgCl2, 5 mM Glucose, 10 mM Hepes; adjusted to pH 7.4 with NaOH), pooled and Ringer solution added to adjust the volume to 50 mL. The cell suspension is centrifuged for 5 min at 1500 U/min (425 g). The supernatant is removed and the cells washed a second time with 50 ml fresh Ringer solution and centrifuged again as before. The supernatant is again removed and the pellet resuspended in Ringer solution to 1,000,000 cells/ml (1×10^6 cells/mL). The cells are plated onto BD BioCoat Poly-D-Lysine 384 well plates (20.000 cells/well; 20 μl/well). The lid covered plates are then incubated until use at 37° C./10% CO2. For dye loading, 20 μl of Calcium-4 assay kit solution (prepared according to the manufacturer's description in Ringer solution) are added to the cells and the plates are incubated for 80 min 37° C. and then 10 min at room temperature.
# Controls, Compound Dilution and Assay Execution:
# Each assay plate contained wells with “high” and “low” controls:
# Low controls 1% DMSO/ringer solution+basal glutamate activation (defined as 100% CTL).
# High controls 10 μM CDPPB+basal glutamate activation (defined as 200% CTL).
# Test compounds are dissolved and diluted in DMSO to 100-fold the desired concentrations. In a second step, the compounds are diluted in Ringer solution such that the compounds are 4-fold more concentrated than the desired final assay concentration. The final DMSO concentration was 1%.
# 20 μl of each compound solution are then transferred to the assay plate and the Ca2+ kinetic is measured to determine any intrinsic compound activity. After 5 min incubation in the FLIPR device, the second stimulation with 20 μl of glutamate in Ringer solution (glutamate concentration adjusted to approximately 5% basal stimulation of the maximal possible glutamate effect) is added and the kinetic Ca2+ response of the wells was measured for the modulation effect.
# The peak height of the Ca release related fluorescence signal (9-66) is used for the EC50. The EC50 of the modulation is calculated over a nonlinear regression with GraphPad Prism (Table 1).
# T1 sequence (P41594 21-1212): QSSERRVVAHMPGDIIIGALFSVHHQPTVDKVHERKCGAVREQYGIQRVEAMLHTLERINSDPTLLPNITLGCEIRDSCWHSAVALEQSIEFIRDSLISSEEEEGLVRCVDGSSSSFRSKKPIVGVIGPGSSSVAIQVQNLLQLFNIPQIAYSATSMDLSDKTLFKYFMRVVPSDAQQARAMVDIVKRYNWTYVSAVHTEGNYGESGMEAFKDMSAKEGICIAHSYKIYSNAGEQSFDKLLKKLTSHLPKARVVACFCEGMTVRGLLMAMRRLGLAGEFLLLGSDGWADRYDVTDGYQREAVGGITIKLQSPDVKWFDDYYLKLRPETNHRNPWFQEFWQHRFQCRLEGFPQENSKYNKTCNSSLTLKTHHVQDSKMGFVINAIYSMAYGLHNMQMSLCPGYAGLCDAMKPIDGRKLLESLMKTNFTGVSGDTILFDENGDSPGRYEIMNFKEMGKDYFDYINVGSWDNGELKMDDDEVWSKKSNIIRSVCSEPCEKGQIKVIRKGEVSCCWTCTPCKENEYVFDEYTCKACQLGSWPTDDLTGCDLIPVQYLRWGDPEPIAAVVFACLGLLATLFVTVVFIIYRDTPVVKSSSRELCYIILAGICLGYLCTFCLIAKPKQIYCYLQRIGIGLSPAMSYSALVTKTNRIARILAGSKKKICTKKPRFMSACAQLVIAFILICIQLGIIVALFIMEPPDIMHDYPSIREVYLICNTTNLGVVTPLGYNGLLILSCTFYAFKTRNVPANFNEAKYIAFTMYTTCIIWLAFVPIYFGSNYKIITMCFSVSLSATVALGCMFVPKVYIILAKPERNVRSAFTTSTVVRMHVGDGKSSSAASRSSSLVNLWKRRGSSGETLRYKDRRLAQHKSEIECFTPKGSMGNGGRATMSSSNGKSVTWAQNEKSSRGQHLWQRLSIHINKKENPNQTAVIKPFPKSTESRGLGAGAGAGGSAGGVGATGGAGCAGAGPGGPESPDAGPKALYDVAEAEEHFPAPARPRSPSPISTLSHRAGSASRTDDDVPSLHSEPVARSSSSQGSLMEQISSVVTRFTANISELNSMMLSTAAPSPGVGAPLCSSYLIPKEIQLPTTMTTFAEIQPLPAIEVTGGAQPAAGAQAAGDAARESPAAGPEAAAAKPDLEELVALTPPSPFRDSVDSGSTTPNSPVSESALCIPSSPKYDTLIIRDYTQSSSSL
row,EC50 [nM],Compound
1,59,CCc1cccc(-c2cc(CC)n(CC(=O)N3CCN(c4ncccn4)CC3)n2)c1 [Example 7.01.131]
2,138,CCc1cccc(-c2cc(CC)n(CC(=O)N3CCN(c4ncc(OC)cn4)CC3)n2)c1 [Example 7.01.132]
3,652,Cc1ccc(-c2cc(-c3ccccc3)nn2CC(=O)N2CCN(c3ncccn3)CC2)nc1C [Example 7.01.133]
4,865,Cc1cnc(-c2cc(-c3ccccc3)nn2CC(=O)N2CCN(c3ncccn3)CC2)cc1C [Example 7.01.134]
5,21,Cc1cnc(-c2cc(-c3ccccc3)n(CC(=O)N3CCN(c4ncccn4)CC3)n2)cc1C [Example 7.01.135]
6,38,Cc1cnc(-c2cc(-c3ccccc3)n(CC(=O)N3CCN(c4ccccn4)CC3)n2)cc1C [Example 7.01.136]
7,230,CCc1cc(-c2cc(C)c(F)c(C)c2)nn1CC(=O)N1CCN(c2ncccn2)CC1 [Example 7.01.138]
8,595,CCc1cc(-c2cc(C)c(F)c(C)c2)nn1CC(=O)N1CCN(c2ccccn2)CC1 [Example 7.01.139]
9,707,CCc1cc(-c2cc(C)c(F)c(C)c2)nn1CC(=O)N1CCN(c2cc(OC)ncn2)CC1 [Example 7.01.140]
10,346,CCc1cc(-c2cc(C)c(F)c(C)c2)nn1CC(=O)N1CCN(c2ncc(OC)cn2)CC1 [Example 7.01.141]
11,704,CCc1cc(-c2cc(C)c(F)c(C)c2)nn1CC(=O)N1CCN(c2ncc(F)cn2)CC1 [Example 7.01.142]
12,20,O=C(Cn1nc(-c2ccccc2)cc1-c1cc(Cl)cs1)N1CCN(c2ncccn2)CC1 [Example 7.01.143]
13,57,COc1cccc(N2CCN(C(=O)Cn3nc(-c4ccc(F)c(C)c4)cc3-c3ccccc3)CC2)c1 [Example 7.01.144]
14,216,CCc1cc(-c2ccc(F)c(C)c2)nn1CC(=O)N1CCN(c2cccc(OC)c2)CC1 [Example 7.01.145]
15,19,COc1cnc(N2CCN(C(=O)Cn3nc(-c4cccc(Cl)c4)cc3-c3ccccc3)CC2)nc1 [Example 7.01.147]
16,20,COc1cc(N2CCN(C(=O)Cn3nc(-c4cccc(Cl)c4)cc3-c3ccccc3)CC2)ncn1 [Example 7.01.148]
17,12,O=C(Cn1nc(-c2cccc(Cl)c2)cc1-c1ccccc1)N1CCN(c2ncccn2)CC1 [Example 7.01.149]
18,5,COc1cc(-c2cc(-c3ccccc3)n(CC(=O)N3CCN(c4ncccn4)CC3)n2)ccc1F [Example 7.01.150]
19,19,COc1cc(-c2cc(-c3ccccc3)n(CC(=O)N3CCN(c4ccccn4)CC3)n2)ccc1F [Example 7.01.151]
20,26,COc1cc(N2CCN(C(=O)Cn3nc(-c4ccc(F)c(OC)c4)cc3-c3ccccc3)CC2)ncn1 [Example 7.01.152]
21,276,COc1cc(-c2cc(-c3ccccc3)nn2CC(=O)N2CCN(c3ncccn3)CC2)ccc1F [Example 7.01.153]
22,11,Cc1nc(-c2cc(-c3ccccc3)n(CC(=O)N3CCN(c4ncccn4)CC3)n2)ccc1F [Example 7.01.154]
23,24,Cc1nc(-c2cc(-c3ccccc3)n(CC(=O)N3CCN(c4ccccn4)CC3)n2)ccc1F [Example 7.01.155]
24,33,COc1cc(N2CCN(C(=O)Cn3nc(-c4ccc(F)c(C)n4)cc3-c3ccccc3)CC2)ncn1 [Example 7.01.156]
25,35,Cc1cc(-c2cc(-c3ccccc3)n(CC(=O)N3CCN(c4ncccn4)CC3)n2)ncc1F [Example 7.01.157]
26,79,Cc1cc(-c2cc(-c3ccccc3)n(CC(=O)N3CCN(c4ccccn4)CC3)n2)ncc1F [Example 7.01.158]
27,39,COc1cc(N2CCN(C(=O)Cn3nc(-c4cc(C)c(F)cn4)cc3-c3ccccc3)CC2)ncn1 [Example 7.01.159]

row,EC50 [nM],Compound
1,250,CCc1cc(-c2cccc(C#N)c2)nn1CC(=O)N1CCN(c2ncccn2)CC1 [Example 7.01.160]
2,297,CCc1cc(-c2cccc(C#N)c2)nn1CC(=O)N1CCN(c2ccccn2)CC1 [Example 7.01.161]
3,343,CCc1cc(-c2cccc(C#N)c2)nn1CC(=O)N1CCN(c2ncc(OC)cn2)CC1 [Example 7.01.162]
4,490,CCc1cc(-c2cccc(C#N)c2)nn1CC(=O)N1CCN(c2cc(OC)ncn2)CC1 [Example 7.01.163]
5,42,Cc1cccc(-c2cc(-c3ccccc3)nn2CC(=O)N2CCN(c3ncccn3)CC2)c1 [Example 7.01.164]
6,4,Cc1cccc(-c2cc(-c3ccccc3)n(CC(=O)N3CCN(c4ncccn4)CC3)n2)c1 [Example 7.01.165]
7,8,Cc1cccc(-c2cc(-c3ccccc3)n(CC(=O)N3CCN(c4ccccn4)CC3)n2)c1 [Example 7.01.166]
8,7,N#Cc1cccc(-c2cc(-c3ccccc3)n(CC(=O)N3CCN(c4ncccn4)CC3)n2)c1 [Example 7.01.167]
9,12,N#Cc1cccc(-c2cc(-c3ccccc3)n(CC(=O)N3CCN(c4ccccn4)CC3)n2)c1 [Example 7.01.168]
10,11,COc1cnc(N2CCN(C(=O)Cn3nc(-c4cccc(C#N)c4)cc3-c3ccccc3)CC2)nc1 [Example 7.01.169]
11,22,COc1cc(N2CCN(C(=O)Cn3nc(-c4cccc(C#N)c4)cc3-c3ccccc3)CC2)ncn1 [Example 7.01.170]
12,9,COc1cnc(N2CCN(C(=O)Cn3nc(-c4cccc(C)c4)cc3-c3ccccc3)CC2)nc1 [Example 7.01.171]
13,152,N#Cc1cccc(-c2cc(-c3ccccc3)nn2CC(=O)N2CCN(c3ncccn3)CC2)c1 [Example 7.01.172]
14,11,COc1cc(N2CCN(C(=O)Cn3nc(-c4cccc(C)c4)cc3-c3ccccc3)CC2)ncn1 [Example 7.01.173]
15,3,O=C(Cn1nc(-c2ccc(OC(F)F)cc2)cc1-c1ccccc1)N1CCN(c2ncccn2)CC1 [Example 7.01.174]
16,10,O=C(Cn1nc(-c2ccc(OC(F)F)cc2)cc1-c1ccccc1)N1CCN(c2ccccn2)CC1 [Example 7.01.175]
17,10,COc1cc(N2CCN(C(=O)Cn3nc(-c4ccc(OC(F)F)cc4)cc3-c3ccccc3)CC2)ncn1 [Example 7.01.176]
18,24,COc1ccc(-c2cc(-c3ccccc3)n(CC(=O)N3CCN(c4ncccn4)CC3)n2)cc1C [Example 7.01.177]
19,21,O=C(Cn1nc(-c2ccc(OC(F)F)cn2)cc1-c1ccccc1)N1CCN(c2ncccn2)CC1 [Example 7.01.178]
20,46,O=C(Cn1nc(-c2ccc(OC(F)F)cn2)cc1-c1ccccc1)N1CCN(c2ccccn2)CC1 [Example 7.01.179]
21,64,COc1cc(N2CCN(C(=O)Cn3nc(-c4ccc(OC(F)F)cn4)cc3-c3ccccc3)CC2)ncn1 [Example 7.01.180]
22,130,CCc1cc(-c2ccc(C)c(F)c2)nn1CC(=O)N1CCN(c2ncccn2)CC1 [Example 7.01.181]
23,434,CCc1cc(-c2ccc(C)c(F)c2)nn1CC(=O)N1CCN(c2ccccn2)CC1 [Example 7.01.182]
24,318,CCc1cc(-c2ccc(C)c(F)c2)nn1CC(=O)N1CCN(c2cc(OC)ncn2)CC1 [Example 7.01.183]
25,145,COc1cc(N2CCN(C(=O)Cn3nc(-c4ccc(OC)c(C)c4)cc3-c3ccccc3)CC2)ncn1 [Example 7.01.184]
26,442,CCCc1cc(-c2ccc(F)c(C)n2)nn1CC(=O)N1CCN(c2ncccn2)CC1 [Example 7.01.185]

# — patent US8822464B2, “N-aryl-piperazine derivatives and their use as positive allosteric modulators of mGluR5 receptors” (Boehringer Ingelheim International GmbH, priority 2011, dated 2014)
